Results as given in ChEMBL document CHEMBL1201862, “PubChem BioAssay data set” (2004).
Calls of active or inactive are those of the source.

Assays:
Bcl-2-related protein A1 [1] = target: T1, Bcl-2-related protein A1 (Mus musculus, UniProt Q07440); test: Bfl-1 binding inhibitors, SAR follow-up, biochemical, fluorescence polarization (AID 1070)
T1 sequence (Q07440 whole entry): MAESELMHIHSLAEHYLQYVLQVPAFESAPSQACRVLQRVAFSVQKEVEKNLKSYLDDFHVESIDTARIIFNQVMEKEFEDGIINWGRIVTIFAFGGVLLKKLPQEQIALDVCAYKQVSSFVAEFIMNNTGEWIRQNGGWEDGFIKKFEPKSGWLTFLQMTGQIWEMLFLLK

Bcl-2-related protein A1 [2] = target: T1, Bcl-2-related protein A1; test: small-molecule antagonists of Bfl-1/BH3 interaction – biochemical, TR-FRET, mouse Bfl-1, confirmation (AID 621);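 note: TR-FRET binding of GST-Bfl-1 to FITC-labelled Bid peptide via terbium antibody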
[3] = target: Glyceraldehyde-3-phosphate dehydrogenase (Homo sapiens, UniProt P04406)
Aminopeptidase N = target: T2, Aminopeptidase N (Plasmodium falciparum FcB1/Columbia, UniProt O96935); test: malaria alanyl aminopeptidase activity blockers – biochemical, fluorogenic H-Leu-NHMec substrate, 1536-well (AID 1445); parameters: species or system Plasmodium falciparum 3D7, 3D7
T2 sequence (O96935 whole entry): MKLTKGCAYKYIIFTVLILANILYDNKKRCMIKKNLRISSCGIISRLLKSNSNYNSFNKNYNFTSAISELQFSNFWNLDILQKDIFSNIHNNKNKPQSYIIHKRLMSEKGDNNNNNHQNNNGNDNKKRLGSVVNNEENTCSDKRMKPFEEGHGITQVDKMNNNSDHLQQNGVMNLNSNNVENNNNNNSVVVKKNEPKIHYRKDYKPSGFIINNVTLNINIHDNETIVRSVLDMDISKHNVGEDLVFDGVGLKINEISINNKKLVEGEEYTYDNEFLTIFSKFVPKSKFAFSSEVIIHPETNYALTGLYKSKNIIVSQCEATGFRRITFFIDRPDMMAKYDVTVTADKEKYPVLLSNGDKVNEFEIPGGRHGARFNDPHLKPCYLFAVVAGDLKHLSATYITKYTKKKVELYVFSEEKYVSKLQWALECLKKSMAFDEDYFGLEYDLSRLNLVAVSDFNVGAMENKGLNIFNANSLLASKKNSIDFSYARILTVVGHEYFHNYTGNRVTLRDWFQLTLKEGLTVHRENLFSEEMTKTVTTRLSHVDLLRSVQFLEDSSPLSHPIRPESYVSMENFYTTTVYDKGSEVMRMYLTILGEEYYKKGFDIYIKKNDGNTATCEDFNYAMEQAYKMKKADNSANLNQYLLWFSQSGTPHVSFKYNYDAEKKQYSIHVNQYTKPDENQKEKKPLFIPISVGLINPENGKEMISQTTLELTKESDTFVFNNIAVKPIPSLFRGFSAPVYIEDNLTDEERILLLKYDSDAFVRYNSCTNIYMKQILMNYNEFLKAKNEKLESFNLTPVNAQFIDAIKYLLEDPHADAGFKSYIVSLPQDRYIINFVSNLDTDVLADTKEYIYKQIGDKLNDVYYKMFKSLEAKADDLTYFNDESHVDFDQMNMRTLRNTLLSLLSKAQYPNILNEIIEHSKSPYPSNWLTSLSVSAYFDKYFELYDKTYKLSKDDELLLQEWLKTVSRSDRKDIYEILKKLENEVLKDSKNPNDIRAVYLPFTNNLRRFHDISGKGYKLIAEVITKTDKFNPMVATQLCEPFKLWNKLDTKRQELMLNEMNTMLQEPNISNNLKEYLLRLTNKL

Procathepsin L = Procathepsin L (Homo sapiens, UniProt P07711); test: CTSL1 protease inhibition – biochemical, QFRET, 1536-well, counter-screen for M1/M17 aminopeptidase inhibitor project, dose response (AID 2214)
Aspartyl aminopeptidase = Aspartyl aminopeptidase (Plasmodium falciparum 3D7, UniProt Q8I2J3); test: Counterscreen for inhibitors of M1 and M17 aminopeptidases: QFRET-based biochemical high throughput dose response assay for inhibitors of the Plasmodium falciparum M18 Aspartyl Aminopeptidase (PFM18AAP). [Related PubChem assays: 1619 (Screening assay (M17LAP inhibitors).), 1445 (Screening assay (M1AAP inhibitors).)]
HeLa = test: ATP-based viability loss in HeLa cells – cell-based, CellTiter-Glo luminescence, cherry-pick samples, cytotoxicity control for MITF activator project, dose response (AID 540259); format: functional; details: Homo sapiens
H4 = test: Luminescence Cell-Based Dose Response HTS to Identify Activators of 5'UTR Stem-Loop Driven Prion Protein mRNA Translation in H4 Neuroglioblastoma Cells. [Related pubchem assays: 1829 (Project Summary), 1814 (Primary HTS)]; format: functional; details: Homo sapiens
[4] = Luminescence Cell-Based Dose Response to Identify Activators of 5'UTR Stem-Loop Driven Prion Protein mRNA Translation in H4-C Neuroglioblastoma Cells. [Related pubchem assays: 1829 (Project Summary), 1814 (Primary HTS)]; format: functional
[5] = Luminescence Cell-Based Dose Response to Identify Activators of Luciferase Translation or Activity in H4-C Neuroglioblastoma Cells. [Related pubchem assays: 1829 (Project Summary), 1814 (Primary HTS)]; format: functional
[6] = Luminescence Cell-Based Dose Confirmation to Identify Activators of 5'UTR Stem-Loop Driven Alpha-Synuclein mRNA Translation in H4 Neuroglioblastoma Cells. [Related pubchem assays: 1829 (Project Summary), 1814 (Primary HTS)]; format: functional
[7] = Luminescence Cell-Based Dose Response HTS to Identify Activators of Luciferase Translation or Activity in H4 […] Cells. [Related pubchem assays: 1829 (Project Summary), 1814 (Primary HTS)]; format: functional
[8] = Luminescence Cell-Based Dose Confirmation HTS to Identify Activators of 5'UTR Stem-Loop Driven Alpha-Synuclein mRNA Translation in H4 Neuroglioblastoma Cells. [Related pubchem assays: 1829 (Project Summary), 1814 (Primary HTS)]; format: functional
[9] = viability loss in CEM21 cells – cell-based, CellTiter-Glo luminescence, cherry-picked, cytotoxicity control for viral fusion inhibitor project, dose response (AID 652042); format: functional;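 note: potency for signal decrease meaning cytotoxicity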
[10] = Trypanosoma cruzi growth suppression in host cells – NIH3T3 host cells, beta-gal luminescence, confirmation (AID 2044); format: functional, cell-based;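 note: intracellular parasites grown in NIH/3T3 mouse fibroblasts as host cells; luminescent beta-galactosidase reporter signal from transgenic T. cruzi replicating inside host cells; inhibitors lower the luminescence signal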
cells [11] = test: cells
[12] = blockers of HIV-1 ZM109 envelope-driven cell-cell fusion – HeLa effector, CEM target cells, luciferase, cherry-pick, dose response (AID 652058); format: functional, cell-based;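 note: luciferase signal from HIV-1 Env mediated cell-cell fusion of effector and target cells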
[13] = blockers of HIV-1 envelope-mediated cell-cell fusion – cherry-pick, dose response (AID 652057); format: functional, cell-based
[14] = luciferase reporter signal suppression in cells – H4 neuroglioma cells, luminescence, dose response (AID 1990); format: functional, cell-based
[15] = target: T3, Neuropeptide Y receptor type 2 (Homo sapiens, UniProt P49146); test: IC50 for human NPY-Y2 blockade – cell-based, counter-screen for NPY-Y1 antagonist project, dose response (AID 1278); format: functional
T3 sequence (P49146 whole entry): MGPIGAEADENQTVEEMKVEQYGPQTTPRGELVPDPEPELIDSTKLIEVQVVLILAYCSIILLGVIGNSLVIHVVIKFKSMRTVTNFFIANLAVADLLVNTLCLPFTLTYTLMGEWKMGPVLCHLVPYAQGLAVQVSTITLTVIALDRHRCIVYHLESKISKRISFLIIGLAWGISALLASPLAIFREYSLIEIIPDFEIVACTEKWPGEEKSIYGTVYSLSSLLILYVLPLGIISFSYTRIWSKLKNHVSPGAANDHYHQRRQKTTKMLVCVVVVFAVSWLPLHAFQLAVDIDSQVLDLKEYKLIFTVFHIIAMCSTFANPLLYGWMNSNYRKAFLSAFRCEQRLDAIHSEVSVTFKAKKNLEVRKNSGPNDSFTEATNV

[16] = NIH3T3 cell viability loss – ATP luminescence, mouse fibroblasts, counter-screen, dose response (AID 2010); format: functional, cell-based;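 note: cells exposed to compound for about 90 hours before reading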
[17] = off-target signal loss in HeLa-CEM21 co-culture – HeLa F-luc CTL cells, cherry-picked, counter-screen for HIV-1 Env fusion inhibitor project, dose response (AID 652040); format: functional, cell-based;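 note: potency for signal decrease marking cytotoxic or nonspecific inhibition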
[18] = HIV-1 AD8 envelope cell-cell fusion blockers – cherry-pick, dose response (AID 652062); format: functional, cell-based;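 note: luciferase signal from cell-cell fusion driven by HIV-1 clade B AD8 Env; potency is for inhibitors of fusion seen as a drop in luminescence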
[19] = alpha-synuclein stem-loop luciferase translation blockers – H4 neuroglioma cells, luminescence, confirmation (AID 1988); format: functional, cell-based
Galanin receptor type 3 = Galanin receptor type 3 (Homo sapiens, UniProt O60755); test: Fluorescence-based cell-based primary high throughput dose response assay to identify antagonists of the Galanin Receptor 3 (GalR3).; format: functional
Jurkat = test: blockers of NF-kB activation in T cells – Jurkat, luciferase reporter, luminescence, B- and T-cell, dose response (AID 489004); format: functional, cell-based; details: Homo sapiens;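 note: NF-kB luciferase reporter Jurkat cells stimulated with PMA plus ionomycin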
[20] = target: T4, COUP transcription factor 2 (Homo sapiens, UniProt P24468); test: Luminescence-based cell-based high throughput dose response assay to identify inhibitors of COUP-TFII (NR2F2).; format: functional;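 note: HEK293 cells transiently cotransfected with COUP-TFII expression vector and reporter; luciferase reporter luminescence driven by COUP-TFII from the pX2-168 reporter plasmid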
T4 sequence (P24468 whole entry): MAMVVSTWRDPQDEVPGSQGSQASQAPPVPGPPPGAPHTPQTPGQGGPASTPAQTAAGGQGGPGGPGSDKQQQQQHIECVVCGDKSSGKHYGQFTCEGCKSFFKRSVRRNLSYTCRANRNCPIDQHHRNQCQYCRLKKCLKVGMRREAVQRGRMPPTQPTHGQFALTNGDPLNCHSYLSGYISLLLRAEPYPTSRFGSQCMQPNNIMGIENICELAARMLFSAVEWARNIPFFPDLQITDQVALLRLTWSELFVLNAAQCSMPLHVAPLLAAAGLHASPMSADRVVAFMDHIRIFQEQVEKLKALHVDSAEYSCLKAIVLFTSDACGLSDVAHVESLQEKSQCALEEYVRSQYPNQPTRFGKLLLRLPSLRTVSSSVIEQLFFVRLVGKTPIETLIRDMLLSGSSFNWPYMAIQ

[21] = Luminescence Cell-Based Dose Response HTS to Identify Inhibitors of 5'UTR Stem-Loop Driven Prion Protein mRNA Translation in H4 Neuroglioblastoma Cells. [Related pubchem assays: 1827 (Project Summary), 1813 (Primary HTS)]; format: functional
[22] = HEK-293T viability loss, compound-treated – cell-based, uHTS hits, cytotoxicity control for B/T-cell NF-kB inhibitor project, dose response (AID 489019); format: functional;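 note: IC50 reflects cytotoxicity as loss of cell viability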
cells [23] = format: functional, cell-based; details: HEK-CNG
[24] = target: T5, Neuropeptide Y receptor type 1 (Homo sapiens, UniProt P25929); test: IC50 of human NPY-Y1 blockers – cell-based, dose response (AID 1277); format: functional
T5 sequence (P25929 whole entry): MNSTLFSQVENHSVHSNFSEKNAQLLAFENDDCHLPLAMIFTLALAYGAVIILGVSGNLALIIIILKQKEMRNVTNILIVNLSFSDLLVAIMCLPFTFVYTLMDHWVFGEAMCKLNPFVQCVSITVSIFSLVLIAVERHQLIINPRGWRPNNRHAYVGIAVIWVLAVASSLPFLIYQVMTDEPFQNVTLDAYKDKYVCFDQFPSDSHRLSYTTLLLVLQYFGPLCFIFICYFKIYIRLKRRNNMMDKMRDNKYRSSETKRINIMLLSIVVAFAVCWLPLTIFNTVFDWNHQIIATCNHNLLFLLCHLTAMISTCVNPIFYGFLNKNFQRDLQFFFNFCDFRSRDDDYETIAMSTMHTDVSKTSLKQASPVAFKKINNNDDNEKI

INS1 = test: INS-1E survival protection against cytokine death – cell-based, luminescence, retest, dose response (AID 449756); format: functional; details: Rattus norvegicus;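 note: cell death triggered by IL-1 beta plus TNF-alpha plus IFN-gamma mixture; protective hits raise ATP signal compared with cytokine alone wells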

Chain of Aspartyl aminopeptidase (Q8I2J3 whole entry): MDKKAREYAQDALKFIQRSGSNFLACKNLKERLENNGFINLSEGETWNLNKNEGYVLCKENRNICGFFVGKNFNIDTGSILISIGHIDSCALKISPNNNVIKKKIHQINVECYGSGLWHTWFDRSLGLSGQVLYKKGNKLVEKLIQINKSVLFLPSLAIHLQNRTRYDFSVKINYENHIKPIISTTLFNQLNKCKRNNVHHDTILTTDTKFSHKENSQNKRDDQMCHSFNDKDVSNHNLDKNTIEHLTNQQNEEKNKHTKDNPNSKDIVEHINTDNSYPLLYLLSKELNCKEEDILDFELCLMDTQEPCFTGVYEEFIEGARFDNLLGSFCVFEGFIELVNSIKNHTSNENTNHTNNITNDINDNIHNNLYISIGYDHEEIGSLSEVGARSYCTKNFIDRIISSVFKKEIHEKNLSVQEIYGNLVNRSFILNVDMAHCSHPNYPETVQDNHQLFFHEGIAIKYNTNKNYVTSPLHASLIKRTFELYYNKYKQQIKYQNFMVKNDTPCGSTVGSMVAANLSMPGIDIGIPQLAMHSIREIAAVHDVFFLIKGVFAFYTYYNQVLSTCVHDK
Chain of Procathepsin L (P07711 whole entry): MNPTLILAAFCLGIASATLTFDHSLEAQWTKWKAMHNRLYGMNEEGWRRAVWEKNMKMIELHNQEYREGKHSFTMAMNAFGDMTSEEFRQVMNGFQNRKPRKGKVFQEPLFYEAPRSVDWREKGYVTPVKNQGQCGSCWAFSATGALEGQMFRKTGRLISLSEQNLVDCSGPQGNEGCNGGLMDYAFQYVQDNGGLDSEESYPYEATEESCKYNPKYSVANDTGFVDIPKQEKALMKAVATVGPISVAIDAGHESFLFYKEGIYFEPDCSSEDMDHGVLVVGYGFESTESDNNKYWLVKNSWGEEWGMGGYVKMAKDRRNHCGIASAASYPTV
Chain of Galanin receptor type 3 (O60755 whole entry): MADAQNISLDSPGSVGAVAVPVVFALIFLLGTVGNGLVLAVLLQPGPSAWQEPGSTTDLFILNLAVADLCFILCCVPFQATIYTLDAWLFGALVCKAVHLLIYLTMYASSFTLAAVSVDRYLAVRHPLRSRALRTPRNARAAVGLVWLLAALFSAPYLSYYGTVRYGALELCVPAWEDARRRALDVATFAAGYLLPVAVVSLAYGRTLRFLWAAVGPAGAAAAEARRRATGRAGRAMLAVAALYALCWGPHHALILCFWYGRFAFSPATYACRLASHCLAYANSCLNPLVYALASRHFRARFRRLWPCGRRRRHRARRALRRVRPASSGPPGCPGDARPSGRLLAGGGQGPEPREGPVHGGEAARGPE
Chain of Glyceraldehyde-3-phosphate dehydrogenase (P04406 whole entry): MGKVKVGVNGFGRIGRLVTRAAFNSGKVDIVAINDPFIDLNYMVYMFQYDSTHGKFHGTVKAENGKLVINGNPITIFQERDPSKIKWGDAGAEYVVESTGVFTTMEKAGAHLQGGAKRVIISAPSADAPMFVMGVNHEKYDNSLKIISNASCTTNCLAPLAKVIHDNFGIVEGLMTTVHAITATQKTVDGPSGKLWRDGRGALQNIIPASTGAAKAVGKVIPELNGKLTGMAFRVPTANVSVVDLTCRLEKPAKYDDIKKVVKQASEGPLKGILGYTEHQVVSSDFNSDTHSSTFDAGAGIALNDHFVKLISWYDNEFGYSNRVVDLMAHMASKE

SMILES: Cc1ccc(Cl)c(N2C(=O)C(Cl)=C(Cl)C2=O)c1Cl
- IC50 (Bcl-2-related protein A1 [1]): > 100 µM (not active)
- IC50 (Bcl-2-related protein A1 [2]): 20.1 µM (active)
- IC50 [3]: > 100 µM (not active)

SMILES: COc1ccc(C2CC(c3c(-c4ccccc4)c4cc(Cl)ccc4[nH]c3=O)=NN2C(=O)CCC(=O)O)cc1 (configuration not stated)
- IC50 (Aminopeptidase N): 4.93 µM (active)
- IC50 (Procathepsin L): > 59.6 µM (not active)
- IC50 (Aspartyl aminopeptidase): > 73.5 µM (not active)

SMILES: COc1cccc(/C(C)=N/N=C(\C)c2cccc(OC)c2)c1
- AC50 (HeLa): 64.5 µM (active)
- EC50 (H4): 38.7 µM (active)
- EC50 [4]: 1.47 µM (active)
- EC50 [5]: 0.36 µM (active)
- EC50 [6]: 0.419 µM (active)
- EC50 [7]: 0.488 µM (active)
- EC50 [8]: < 0.1 µM (active)

SMILES: CCCCCCn1c2c(c(=N)c3c1CCC3)CCC2
- AC50 [9]: 3.33 µM (active)
- EC50 [10]: < 0.1 µM (active)
- EC50 (cells [11]): 0.007 µM (active)
- AC50 [12]: 0.949 µM (active)
- AC50 [13]: 6.91 µM (active)
- EC50 [14]: 8.02 µM (active)
- IC50 [15]: 14.6 µM (not active)
- EC50 [16]: > 60 µM (not active)
- AC50 [17]: > 70 µM (inactive)
- AC50 [18]: 3.19 µM (active)
- EC50 [19]: 6.52 µM (active)
- IC50 (Galanin receptor type 3): 8.41 µM (active)
- IC50 (Jurkat): 7.15 µM (active)
- IC50 [20]: 3.52 µM (active)
- EC50 [21]: 14.3 µM (active)
- IC50 [22]: > 80 µM (inactive)
- EC50 (cells [23]): > 29.9 µM (inactive)
- IC50 [24]: 8.75 µM (active)
- AC50 (INS1): 2.04 µM (active)
